According to the supplement of paper PMC11451515:

Tested on: NOMO1
Experiment: cell viability relative to DMSO control; higher = less cytotoxic
Details: 48 h
Summary of the method: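 Library compounds in DMSO were pin-dosed into 1536-well plates (5 μl) holding NOMO1 or SEM (500 cells/well) or P12-Ichikawa (1000 cells/well) leukemia cells, across an 11-point threefold series of 47 μM to 0.79 nM. Each cell line had been adapted for at least four passages in each medium. CellTiter-Glo One luminescence was read after 48 h at 37°C. Viability is the per-plate percentage relative to DMSO wells, with cell-free wells as background.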

[1] = HPLM + 10% dialyzed FBS, 0.000781 µM
[2] = HPLM + 10% dialyzed FBS, 0.00234 µM
[3] = HPLM + 10% dialyzed FBS, 0.00702 µM
[4] = HPLM + 10% dialyzed FBS, 0.0211 µM
[5] = HPLM + 10% dialyzed FBS, 0.0632 µM
[6] = HPLM + 10% dialyzed FBS, 0.19 µM
[7] = HPLM + 10% dialyzed FBS, 0.569 µM
[8] = HPLM + 10% dialyzed FBS, 1.71 µM
[9] = HPLM + 10% dialyzed FBS, 5.12 µM
[10] = HPLM + 10% dialyzed FBS, 15.4 µM
[11] = HPLM + 10% dialyzed FBS, 46.1 µM
[12] = RPMI 5 mM glucose + 10% FBS, 0.000781 µM
[13] = RPMI 5 mM glucose + 10% FBS, 0.00234 µM
[14] = RPMI 5 mM glucose + 10% FBS, 0.00702 µM
[15] = RPMI 5 mM glucose + 10% FBS, 0.0211 µM
[16] = RPMI 5 mM glucose + 10% FBS, 0.0632 µM
[17] = RPMI 5 mM glucose + 10% FBS, 0.19 µM
[18] = RPMI 5 mM glucose + 10% FBS, 0.569 µM
[19] = RPMI 5 mM glucose + 10% FBS, 1.71 µM
[20] = RPMI 5 mM glucose + 10% FBS, 5.12 µM
[21] = RPMI 5 mM glucose + 10% FBS, 15.4 µM
[22] = RPMI 5 mM glucose + 10% FBS, 46.1 µM
[23] = RPMI 5 mM glucose + 10% dialyzed FBS, 0.000781 µM
[24] = RPMI 5 mM glucose + 10% dialyzed FBS, 0.00234 µM
[25] = RPMI 5 mM glucose + 10% dialyzed FBS, 0.00702 µM
[26] = RPMI 5 mM glucose + 10% dialyzed FBS, 0.0211 µM
[27] = RPMI 5 mM glucose + 10% dialyzed FBS, 0.0632 µM
[28] = RPMI 5 mM glucose + 10% dialyzed FBS, 0.19 µM
[29] = RPMI 5 mM glucose + 10% dialyzed FBS, 0.569 µM
[30] = RPMI 5 mM glucose + 10% dialyzed FBS, 1.71 µM
[31] = RPMI 5 mM glucose + 10% dialyzed FBS, 5.12 µM
[32] = RPMI 5 mM glucose + 10% dialyzed FBS, 15.4 µM
[33] = RPMI 5 mM glucose + 10% dialyzed FBS, 46.1 µM

Row | SMILES | cell viability [1] [%] | cell viability [2] [%] | cell viability [3] [%] | cell viability [4] [%] | cell viability [5] [%] | cell viability [6] [%] | cell viability [7] [%] | cell viability [8] [%] | cell viability [9] [%] | cell viability [10] [%] | cell viability [11] [%] | cell viability [12] [%] | cell viability [13] [%] | cell viability [14] [%] | cell viability [15] [%] | cell viability [16] [%] | cell viability [17] [%] | cell viability [18] [%] | cell viability [19] [%] | cell viability [20] [%] | cell viability [21] [%] | cell viability [22] [%] | cell viability [23] [%] | cell viability [24] [%] | cell viability [25] [%] | cell viability [26] [%] | cell viability [27] [%] | cell viability [28] [%] | cell viability [29] [%] | cell viability [30] [%] | cell viability [31] [%] | cell viability [32] [%] | cell viability [33] [%]
1 | COc1cc(N2CCC(O)CC2)ccc1Nc1cc(Nc2ccccc2[S+](=O)([O-])C(C)C)c2cc[nH]c2n1 | 105 | 131 | 64.6 | 53.7 | 96.5 | 96.3 | 89 | 79 | 74.1 | 62.1 | 65.6 | 91.7 | 92.6 | 84.6 | 84.9 | 98.7 | 84.4 | 92.4 | 86.6 | 87.6 | 74 | 71.9 | 90.4 | 83.4 | 97.3 | 100 | 101 | 87.8 | 63.4 | 84.7 | 87.5 | 67 | 67.1
2 | CC[C@]1(O)C[C@H]2CN(CCC3=C([NH]C4=C3C=CC=C4)[C@@](C2)(C(=O)OC)C5=CC6=C(C=C5OC)N(C=O)[C@H]7[C@](O)([C@H](OC(C)=O)[C@]8(CC)\C=C/C[N@@]9CC[C@]67[C@H]89)C(=O)OC)C1 | 119 | 117 | 127 | 110 | 35.3 | 34.7 | 43.2 | 47 | 47.1 | 50.9 | 41.6 | 120 | 118 | 127 | 116 | 38.9 | 24.4 | 23 | 30.7 | 28.6 | 30.4 | 25.8 | – | – | – | – | – | – | – | – | – | – | –
3 | COC[C@H](NC(=O)c1cnc(C)s1)C(=O)N[C@@H](COC)C(=O)N[C@@H](Cc1ccccc1)C(=O)[C@@]1(C)CO1 | 105 | 106 | 111 | 107 | 97.2 | 83.5 | 23.5 | 6.64 | 1.03 | 0.172 | 1.92 | 98.6 | 108 | 92.9 | 94.3 | 93.6 | 98.1 | 28.1 | 6.29 | 1.06 | 0.581 | 1.29 | 98.8 | 98.1 | 97.6 | 96.7 | 98.3 | 88.1 | 30.2 | 5.68 | 2.49 | 0.98 | 1.62
4 | C[C@H](NC(=O)C(=O)Nc1ccccc1C(C)(C)C)C(=O)N[C@@H](CC(=O)O)C(=O)COc1c(F)c(F)cc(F)c1F | 124 | 120 | 133 | 123 | 142 | 137 | 123 | 141 | 121 | 51.6 | 39 | 115 | 117 | 121 | 118 | 122 | 129 | 131 | 116 | 122 | 89.1 | 26.5 | – | – | – | – | – | – | – | – | – | – | –
5 | O=[N+]([O-])c1cn2c(n1)OC[C@@H](OCc1ccc(OC(F)(F)F)cc1)C2 | – | – | – | – | – | – | – | – | – | – | – | – | – | – | – | – | – | – | – | – | – | – | 120 | 141 | 115 | 126 | 145 | 142 | 148 | 118 | 138 | 139 | 120
6 | O=C1\C=C(/OC2=C1C=CC=C2C3=CC=CC=C3)N4CCOCC4 | 95.4 | 99.2 | 99.9 | 90.4 | 91.9 | 90.4 | 86.7 | 63.9 | 82.5 | 66.5 | 75.6 | 82.4 | 88 | 89.1 | 84.7 | 79.9 | 83 | 81.7 | 77 | 82.4 | 80.9 | 76 | 75.2 | 86.5 | 81.7 | 83.9 | 87.4 | 79.7 | 82.3 | 66.1 | 89.8 | 79.1 | 88.1
